Experimental data published in US20130209550A1, “Anti-Viral Azide Containing Compounds” (LIFE TECHNOLOGIES CORPORATION, priority 2010, published 2013).

Legend:
HIV = assay: Infectivity of azide-labeled HIV, luciferase reporter assay on TZM/BI reporter cell line; type: cell-based; settings: HIVNL4-3 labeled in CEMx174 cells; virus incubated 12 hours on TZM/BI; single cycle replication system; two luciferase reagents; FIGS. 3 and 4
Procedure: CEMx174 cells were transfected with HIVNL4-3 in a T-150 flask and the virus production was monitored by reverse transcriptase activity until peak virus production occurred (usually 7 to 9 days post transfection). Prior to transfection, the CEMx174 cells were spiked with the following azide-modified biomolecules: 15-azidopentadecanoic acid (50-100 μM), 12-azidododecanoic acid (50-100 μM), tetraacetylated N-azidoacetylgalactosamine (20-40 μM), and tetraacetylated N-azidoacetyl-D-mannosamine (20-40 μM).
Labeled virus was also obtained from the transfected cells. More specifically, virus-containing supernatants were collected and virus was purified through 20% sucrose as previously described (Graham, D. R. et al., Proteomics 2008, 8:4919-30). The purified virus was then mixed with the CLICK-IT® detection reagent, tetramethylrhodamine (TAMRA) alkyne and the CLICK-IT® Protein Reaction Buffer Kit (Invitrogen, Carlsbad, Calif.). Virus samples were run on a one-dimensional gel to reveal azide-labeled viral proteins (FIG. 2). […]
To examine the effect of the azide-modified biomolecules on the innate biology of the virus, the azide-labeled virus from the transfected cells was isolated and tested in cell infection studies. […] Viral infectivity was determined by measuring cellular luciferase activities with two different luciferase reagents.

[1] = tested on: Nuclear-GFP BacMam 2.0 Virus (baculovirus); assay: Infectivity of PTM analog-labeled Nuclear-GFP BacMam baculovirus in U2-OS cells; type: cell-based; settings: virus labeled in Sf9 cells with 50 uM analog; U2-OS cells incubated overnight with labeled virus; FIG. 5
Text: Inhibition of insect cell baculovirus infectivity with azido fatty acid analogs: The BacMam system uses a modified insect cell virus (baculovirus) as a vehicle to efficiently deliver and express genes in mammalian cells. A Nuclear-GFP BacMam 2.0 expression system (Invitrogen, C10602) was used as a model to determine if PTM analog labeling of the virus would affect mammalian cell infectivity. Viruses were labeled with various PTM analogs and used to infect mammalian cells. Infectivity was determined by the expression of nuclear-GFP, as viral entry into the cell is required for expression of GFP protein, […]
Characterization of BacMam virus production: To verify, quantitate, and normalize the amount of enriched viruses obtained from insect cell supernatants, samples of each virus were lysed in SDS sample preparation buffer (SPB), sonicated with a probe tip sonicator, and heated at 90C to completely dissolve the viral proteins. Viral protein concentrations of the lysates were then determined. […]
Mammalian cell infection protocol: To determine if the PTM analog-labeled viruses retain the ability to infect mammalian cells, 50,000 U2-OS cells (human osteosarcoma cell line) were plated onto a 6 well-chamber glass bottom plate. […] The following day cells were imaged on AMG EVOS fluorescence microscope at 10× or 20× magnification using both white light and GFP filters (FIG. 5). […]

Structure (SMILES) | impact on the infectivity of the virus (cellular luciferase activity) (HIV) | nuclear-GFP expression (viral entry) [1]
[N-]=[N+]=NCCCCCCCCCCCC(=O)O [12-azidododecanoic acid] | profound impact on the infectivity of the virus | no nuclear-GFP expression
[N-]=[N+]=NCCCCCCCCCCCCCCC(=O)O [15-azidopentadecanoic acid] |  | no nuclear-GFP expression
